According to patent US7396547B2, “Antiseptic composition” (priority 1999, dated 2008):

What was measured:
Solubility in water = assay type: physicochemical
Description: A composition for use in accordance with the invention can comprise PMD and a carrier.

acne = assay: Effect against acne
Description: The etiology of acne is not completely understood, but, in some instances, it is believed that acne has a bacterial etiology.

E. coli = assay: Cis PMD MIC/MBC determination, broth dilution and sub-culture; assay type: cell-based; set-up: key to bacterial growth: A “+” indicates bacterial growth; a “−” indicates that bacterial growth is prevented; conditions: for bacterial growth: overnight 37° C.
Protocol: MIC—minimum inhibitory concentration. This is the concentration of PMD which prevents bacterial growth. […] Thus, for E. Coli below, the minimum inhibitory concentration is 0.25% PMD in 1.25% ethanol.
MBC—minimum bactericidal concentration. This is the concentration of PMD which kills the bacteria. A “ ? ” indicates live bacteria are present.
Cis PMD was dissolved in Absolute Ethanol (0.2 g/ml) to give 20% solution. This was further diluted in water to give 10% in 50% EtOH. 200 μl was added to 0.8 ml Iso-sensitest broth to give a 2% solution in 10% EtOH. Serial 2-fold dilutions in ISB were then carried out and 20 μl E. coli (McFarlane 0.5) were added to each tube and incubated overnight at 37° C. After 18 hours, tubes showing no growth were sub-cultured.

[1] = Toxicity tests for regulatory authorities
Description: PMD is the active ingredient in our MOSIGUARD™ insect repellant. We have conducted tests to show regulatory authorities that PMD is not toxic, and we have marketed our insect repellent for several years and there has been no report of any significant toxicity thereof. Potentially, therefore, the medical uses of PMD may be topical or systemic. Systemic administration may be by way of an oral dosage form or by a parenteral route, such as by intra-venous injection.

certain strains of MRSA = assay: Tests against MRSA; assay type: cell-based, Staphylococcus aureus
Description: In a further aspect, therefore, the invention provides the use of PMD against MRSA.

S. aureus (oxford) = assay: Cis PMD MIC/MBC determination, broth dilution and sub-culture; assay type: cell-based; set-up: key: A “+” indicates bacterial growth; a “−” indicates that bacterial growth is prevented; conditions: overnight 37° C.
S. pyogenes = assay: as above; assay type: cell-based; set-up: key: A “+” indicates bacterial growth; a “−” indicates that bacterial growth is prevented; conditions: overnight 37° C.
MRSA 16 = assay: as above; assay type: cell-based, Staphylococcus aureus; set-up: key: A “+” indicates bacterial growth; a “−” indicates that bacterial growth is prevented; conditions: overnight 37° C.
MRSA 15 = assay: as above; assay type: cell-based, Staphylococcus aureus; set-up: key: A “+” indicates bacterial growth; a “−” indicates that bacterial growth is prevented; conditions: overnight 37° C.
P. aeruginosa = assay: as above; assay type: cell-based; set-up: key: A “+” indicates bacterial growth; a “−” indicates that bacterial growth is prevented; conditions: overnight 37° C.

C[C@H]1CC[C@H](C(C)(C)O)[C@H](O)C1 (racemic) [PMD, p-menthane-3,8-diol]
poorly soluble: solubility in water (Solubility in water)
0.5%: minimum bactericidal concentration (E. coli; in 2.5% ethanol)
0.25%: minimum inhibitory concentration (E. coli; in 1.25% ethanol)
effective: effectiveness against acne (acne) | effectiveness against MRSA (certain strains of MRSA)
not toxic: toxicity [1]

CC1CCC(C(C)(C)O)C(O)C1 (stereo not drawn) [Cis PMD]
+: bacterial growth (S. aureus (oxford); 0.06% PMD, 0.3% alcohol) | bacterial growth (S. aureus (oxford); 0.125% PMD, 0.6% alcohol) | bacterial growth (S. aureus (oxford); 0.25% PMD, 1.25% alcohol) | bacterial growth (S. pyogenes; 0.06% PMD, 0.3% alcohol) | bacterial growth (S. pyogenes; 0.125% PMD, 0.6% alcohol) | bacterial growth (MRSA 16; 0.06% PMD, 0.3% alcohol) | bacterial growth (MRSA 16; 0.125% PMD, 0.6% alcohol) | bacterial growth (MRSA 16; 0.25% PMD, 1.25% alcohol) | bacterial growth (MRSA 15; 0.06% PMD, 0.3% alcohol) | bacterial growth (MRSA 15; 0.125% PMD, 0.6% alcohol) | bacterial growth (MRSA 15; 0.25% PMD, 1.25% alcohol) | bacterial growth (P. aeruginosa; 0.06% PMD, 0.3% alcohol) | bacterial growth (P. aeruginosa; 0.125% PMD, 0.6% alcohol) | bacterial growth (P. aeruginosa; 0.25% PMD, 1.25% alcohol) | bacterial growth (E. coli; 0.06% PMD, 0.3% alcohol) | bacterial growth (E. coli; 0.125% PMD, 0.6% alcohol)
−: bacterial growth (S. aureus (oxford); 0.5% PMD, 2.5% alcohol) | bacterial growth (S. aureus (oxford); 1% PMD, 5% alcohol) | bacterial growth (S. aureus (oxford); 2% PMD, 10% alcohol) | bacterial growth (S. pyogenes; 0.25% PMD, 1.25% alcohol) | bacterial growth (S. pyogenes; 0.5% PMD, 2.5% alcohol) | bacterial growth (S. pyogenes; 1% PMD, 5% alcohol) | bacterial growth (S. pyogenes; 2% PMD, 10% alcohol) | bacterial growth (MRSA 16; 0.5% PMD, 2.5% alcohol) | bacterial growth (MRSA 16; 1% PMD, 5% alcohol) | bacterial growth (MRSA 16; 2% PMD, 10% alcohol) | bacterial growth (MRSA 15; 0.5% PMD, 2.5% alcohol) | bacterial growth (MRSA 15; 2% PMD, 10% alcohol) | bacterial growth (P. aeruginosa; 0.5% PMD, 2.5% alcohol) | bacterial growth (P. aeruginosa; 1% PMD, 5% alcohol) | bacterial growth (P. aeruginosa; 2% PMD, 10% alcohol) | bacterial growth (E. coli; 0.25% PMD, 1.25% alcohol) | bacterial growth (E. coli; 0.5% PMD, 2.5% alcohol) | bacterial growth (E. coli; 1% PMD, 5% alcohol) | bacterial growth (E. coli; 2% PMD, 10% alcohol)
